Some results are limits rather than exact numbers.

Chain of GST tagged truncated human mutant G2019S LRRK2 (Q5S007 970-2527 G2019S): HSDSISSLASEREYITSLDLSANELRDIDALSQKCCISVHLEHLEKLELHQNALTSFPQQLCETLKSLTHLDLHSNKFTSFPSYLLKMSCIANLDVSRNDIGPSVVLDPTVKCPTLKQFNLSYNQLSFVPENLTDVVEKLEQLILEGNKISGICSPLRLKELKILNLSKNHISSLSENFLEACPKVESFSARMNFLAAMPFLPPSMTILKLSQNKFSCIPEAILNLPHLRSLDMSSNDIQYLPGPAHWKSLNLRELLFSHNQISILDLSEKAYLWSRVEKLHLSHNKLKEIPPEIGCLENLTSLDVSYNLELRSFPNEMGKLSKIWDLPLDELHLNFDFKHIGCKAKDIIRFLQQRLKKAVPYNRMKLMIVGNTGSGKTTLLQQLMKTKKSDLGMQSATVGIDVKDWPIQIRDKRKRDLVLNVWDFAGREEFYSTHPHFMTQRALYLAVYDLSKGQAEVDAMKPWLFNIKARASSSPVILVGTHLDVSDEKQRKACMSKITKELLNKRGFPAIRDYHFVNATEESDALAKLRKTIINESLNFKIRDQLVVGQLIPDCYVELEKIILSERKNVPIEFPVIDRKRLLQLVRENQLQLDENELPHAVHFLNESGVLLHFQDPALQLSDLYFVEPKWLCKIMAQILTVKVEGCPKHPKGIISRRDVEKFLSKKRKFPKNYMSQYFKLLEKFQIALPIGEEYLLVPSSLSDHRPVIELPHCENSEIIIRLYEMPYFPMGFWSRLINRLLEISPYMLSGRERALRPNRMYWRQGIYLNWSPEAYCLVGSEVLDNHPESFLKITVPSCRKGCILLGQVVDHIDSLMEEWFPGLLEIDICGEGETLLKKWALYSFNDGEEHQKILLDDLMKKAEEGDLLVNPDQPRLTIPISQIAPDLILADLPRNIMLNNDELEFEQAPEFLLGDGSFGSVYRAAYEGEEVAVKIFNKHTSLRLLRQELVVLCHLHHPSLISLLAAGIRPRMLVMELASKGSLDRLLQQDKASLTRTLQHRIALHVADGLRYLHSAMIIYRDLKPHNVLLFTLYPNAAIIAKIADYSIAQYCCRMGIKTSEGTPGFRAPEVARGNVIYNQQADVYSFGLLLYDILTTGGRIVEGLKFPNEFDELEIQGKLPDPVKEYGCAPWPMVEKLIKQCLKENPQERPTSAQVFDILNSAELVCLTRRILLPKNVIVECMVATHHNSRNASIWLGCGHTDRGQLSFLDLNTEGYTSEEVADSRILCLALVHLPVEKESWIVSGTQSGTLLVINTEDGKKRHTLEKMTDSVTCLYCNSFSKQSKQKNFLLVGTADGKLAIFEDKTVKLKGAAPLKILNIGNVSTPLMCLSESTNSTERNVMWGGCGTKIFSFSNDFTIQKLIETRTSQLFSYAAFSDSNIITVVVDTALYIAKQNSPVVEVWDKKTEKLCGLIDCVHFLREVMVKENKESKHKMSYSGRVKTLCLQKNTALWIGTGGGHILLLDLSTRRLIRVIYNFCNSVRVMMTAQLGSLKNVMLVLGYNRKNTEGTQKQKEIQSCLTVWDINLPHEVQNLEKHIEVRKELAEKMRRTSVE

One experiment has as its target GST tagged truncated human mutant G2019S LRRK2 (Homo sapiens (Human), UniProt Q5S007, G2019S). The experiment can be described thus: LRRK2 Km ATP LanthaScreen Assay. Type of experiment: biochemical. The settings on record: G2019S LRRK2, 134 μM ATP (Km ATP), mean values. The protocol: General Experimental Information: • Unless otherwise noted, all reactions are magnetically stirred. Unless otherwise noted, when diethyl ether is used in the experiments described below, it is Fisher ACS certified material and is stabilized with BHT. Unless otherwise noted, “concentrated” and/or “solvent removed under reduced pressure” means evaporating the solvent from a solution or mixture using a rotary evaporator or vacuum pump. Unless otherwise noted, flash chromatography is carried out on a Teledyne Isco (Lincoln, NE), Analogix (Burlington, WI), or Biotage (Stockholm, SWE) automated chromatography system using a commercially available cartridge as the column. Columns may be purchased from Teledyne Isco, Analogix, Biotage, Varian (Palo Alto, CA), or Supelco (Bellefonte, PA) and are usually filled with silica gel as the stationary phase. Reverse phase prep-HPLC conditions, where used, can be found at the end of each experimental section. Aqueous solutions were concentrated on a Genevac (Ipswich, ENG) or by freeze-drying/lyophilization. Unless otherwise noted, all LRRK2 pIC50 data presented in tables refers to the LRRK2 G2019S Km ATP LanthaScreen™ assay (Life Technologies Corp., Carlsbad, CA) that is described in the Biological Assay section.
The pIC50 values reported herein were measured as follows.
Biological Assay: LRRK2 Km ATP LanthaScreen™ Assay
Compound potency against LRRK2 kinase activity was determined using LanthaScreen™ technology from Life Technologies Corporation (Carlsbad, CA) using a GST20 tagged truncated human mutant G2019S LRRK2 in the presence of the fluorescein-labeled peptide substrate LRRKtide® (LRRK2 phosphorylated ezrin/radixin/moesin (ERM)), also from Life Technologies. The data presented for the Km ATP LanthaScreen™ Assay represents mean IC50 values based on several test results and may have reasonable deviations depending on the specific conditions and reagents used. Km is the Michaelis constant of an enzyme and is defined as the concentration of native substrate (ATP for a kinase) which permits the enzyme to achieve half Vmax (Vmax=rate of reaction when the enzyme is saturated with substrate). IC50 (half-maximal inhibitory concentration) represents the concentration of inhibitor required to inhibit LRRK2 kinase activity by 50%. Assays were performed in the presence of 134 μM ATP (Km ATP). Upon completion, the assay was stopped, and phosphorylated substrate detected with a terbium (Tb)-labeled anti-pERM antibody (cat. no. PV4898). The compound dose response was prepared by diluting a 10 mM stock of compound to a maximum concentration of 9.99 μM in 100% DMSO, followed by custom fold serial dilution in DMSO nine times. 20 nL of each dilution was spotted via a Labcyte Echo onto a 384-well black-sided plate (Corning 3575) followed by 15 μl of a 1.25 nM enzyme solution in 1× assay buffer (50 mM Tris pH 8.5, 10 mM MgCl2, 0.01% Brij-35, 1 mM EGTA, 2 mM dithiothreitol, 0.05 mM sodium orthovanadate). Following a 15-minute incubation period at RT, the kinase reaction was started with the addition of 5 μl of 400 nM fluorescein-labeled LRRKtide® (LRRK2 phosphorylated ezrin/radixin/moesin (ERM)) peptide substrate and 134 μM ATP solution in 1× assay buffer. The reaction was allowed to progress at ambient temperature for 90 minutes. The reaction was then stopped by the addition of 20 μl of TR-FRET Dilution Buffer (Life Technologies, Carlsbad, CA) containing 2 nM Tb-labeled anti-phospho LRRKtide® (LRRK2 phosphorylated ezrin/radixin/moesin (ERM)) antibody and 10 mM EDTA (Life Technologies, Carlsbad, CA). After an incubation period of 1 h at RT, the plate was read on an EnVision® multimode plate reader (Perkin Elmer, Waltham, MA) with an excitation wavelength of 337 nm (Laser) and a reading emission at both 520 and 495 nm. Compound IC50 values were interpolated from nonlinear regression best-fits of the log of the final compound concentration, plotted as a function of the 520/495-nm emission ratio using activity base “Abase”). […]
Consider `[2H]C1(N2CCC(c3cc4nc(Nc5cnn(C6CC6)c5Cl)ncc4cc3Cl)CC2)COC1` [Ex-4.57, 6-chloro-N-(5-chloro-1-cyclopropyl-1H-pyrazol-4-yl)-7-(1-(oxetan-3-yl-3-d)piperidin-4-yl)quinazolin-2-amine], for which the “LRRK2 pIC50” value was >9.20.
As to `Cc1cc(Nc2ncc3cc(Cl)c(C4CCN(C5CS(=O)(=O)C5)CC4)cc3n2)sn1` [Ex-4.96, 3-(4-(6-chloro-2-((3-methylisothiazol-5-yl)amino)quinazolin-7-yl)piperidin-1-yl)thietane 1,1-dioxide], the “LRRK2 pIC50” value amounted to 9.09.
As for `Cc1c(Nc2ncc3cc(Cl)c(C4CCN([C@@H]5COC[C@@H]5O)CC4)cc3n2)cnn1C12CC(C1)C2` (single isomer, unassigned) [Ex-2.28, (3S,4S) or (3R,4R) 4-[4-(2-{[1-(bicyclo[1.1.1]pentan-1-yl)-5-methyl-1H-pyrazol-4-yl]amino}-6-chloroquinazolin-7-yl)piperidin-1-yl]oxolan-3-ol], the “LRRK2 pIC50” value is recorded as >9.20.
With `FC1COCC1N1CC[C@H](c2cc3nc(Nc4cnn(C5CC5(F)F)c4Cl)ncc3cc2Cl)C(F)C1` (some centres unmarked) [Ex-7.2], the “LRRK2 pIC50” value is >9.20.
On the same count and under the same terms, with `CC1(N2CCC(c3cc4nc(Nc5cnn(CC(F)F)c5Cl)ncc4cc3Cl)CC2)COC1` [Ex-4.98, 6-chloro-N-[5-chloro-1-(2,2-difluoroethyl)-1H-pyrazol-4-yl]-7-[1-(3-methyloxetan-3-yl)piperidin-4-yl]quinazolin-2-amine] the figure was >9.20; with `Cc1cc2cnc(Nc3cnn(C4CC4(F)F)c3C)nc2cc1[C@@H]1CCN([C@@H]2COC[C@@H]2O)C[C@H]1F` (single isomer, unassigned) [Ex-4.144, (R)(3S,4S)(3S,4S) or (R)(3S,4S)(3R,4R) or (R)(3R,4R)(3S,4S) or (R)(3R,4R)(3R,4R) or (S)(3S,4S)(3S,4S) or (S)(3S,4S)(3R,4R) or (S)(3R,4R)(3S,4S) or (S)(3R,4R)(3R,4R) 4-[4-(2-{[1-(2,2-difluorocyclopropyl)-5-methyl-1H-pyrazol-4-yl]amino}-6-methylquinazolin-7-yl)-3-fluoropiperidin-1-yl]oxolan-3-ol], 8.68; with `Cc1nsc(Nc2ncc3cc(Cl)c([C@H]4CCN(C5CCOC5)C[C@@H]4F)cc3n2)c1Cl` (single isomer, unassigned) [Ex-8.23, (3S,4S)(S) or (3S,4S)(R) or (3R,4R)(S) or (3R,4R)(R) 6-chloro-N-(4-chloro-3-methyl-1,2-thiazol-5-yl)-7-[3-fluoro-1-(oxolan-3-yl)piperidin-4-yl]quinazolin-2-amine], 8.12.
As for `O=S1(=O)CC(N2CC[C@@H](c3cc4nc(Nc5cnn(C6CC6)c5Cl)ncc4cc3Cl)[C@H](F)C2)C1` (single isomer, unassigned), the “LRRK2 pIC50” value amounted to 8.52.
`COCC12CC(n3cc(Nc4ncc5cc(Cl)c(C6CCN(C7(C)COC7)CC6)cc5n4)cn3)(C1)C2` [Ex-2.3, 6-chloro-N-(1-(3-(methoxymethyl)bicyclo[1.1.1]pentan-1-yl)-1H-pyrazol-4-yl)-7-(1-(3-methyloxetan-3-yl)piperidin-4-yl)quinazolin-2-amine]: the “LRRK2 pIC50” value was >9.20.
As for `N#Cc1cc2cnc(Nc3cnn(C4CC4)c3Cl)nc2cc1[C@H]1CCN(C2COC2)C[C@@H]1F` (single isomer, unassigned) [Ex-6.2, (3R,4R) or (3S,4S) 2-((5-chloro-1-cyclopropyl-1H-pyrazol-4-yl)amino)-7-(3-fluoro-1-(oxetan-3-yl)piperidin-4-yl)quinazoline-6-carbonitrile], the “LRRK2 pIC50” value is on record as >9.20.
The same measure, in the same setting: with `Cc1c(Nc2ncc3cc(Cl)c([C@@H]4CCN([C@H]5COC[C@H]5O)C[C@H]4F)cc3n2)cnn1C12CC(C1)C2` (single isomer, unassigned) [Ex-4.162, (3S,4S)(3S,4S) or (3S,4S)(3R,4R) or (3R,4R)(3S,4S) or (3R,4R)(3R,4R) 4-[4-(2-{[1-(bicyclo[1.1.1]pentan-1-yl)-5-methyl-1H-pyrazol-4-yl]amino}-6-chloroquinazolin-7-yl)-3-fluoropiperidin-1-yl]oxolan-3-ol] the figure was >9.20.
As to `Cc1cc2cnc(Nc3cnn(C4CC4(F)F)c3C)nc2cc1[C@@H]1CCN(C2COCC2F)C[C@H]1F` (single isomer, unassigned) [Ex-7.6], the “LRRK2 pIC50” value is reported as >9.20.
For the molecule `CC1(n2ncc(Nc3ncc4cc(Cl)c(C5CCN(C6CS(=O)(=O)C6)CC5)cc4n3)c2Cl)CC1` [Ex-8.12, 3-(4-(6-chloro-2-((5-chloro-1-(1-methylcyclopropyl)-1H-pyrazol-4-yl)amino)quinazolin-7-yl)piperidin-1-yl)thietane 1,1-dioxide], the “LRRK2 pIC50” value was found to be 8.92.
As for `FC(F)Cn1ncc(Nc2ncc3cc(Cl)c([C@@H]4CCN(C5COC5)C[C@H]4F)cc3n2)c1Cl` (single isomer, unassigned) [Ex-4.37, (3S,4S) or (3R,4R) 6-chloro-N-[5-chloro-1-(2,2-difluoroethyl)-1H-pyrazol-4-yl]-7-[3-fluoro-1-(oxetan-3-yl)piperidin-4-yl]quinazolin-2-amine], the “LRRK2 pIC50” value is listed as 9.15.
`CC1(n2ncc(Nc3ncc4cc(Cl)c(C5CCN(C(F)(F)F)CC5)cc4n3)c2Cl)CC1` [Ex-4.7, 6-chloro-N-(5-chloro-1-(1-methylcyclopropyl)-1H-pyrazol-4-yl)-7-(1-(trifluoromethyl)piperidin-4-yl)quinazolin-2-amine]: the “LRRK2 pIC50” value is 7.74.
On to `Cc1cc(Nc2ncc3cc(Cl)c(C4CCN(C5COCC5O)CC4F)cc3n2)n(C)n1` (single isomer, unassigned) [Ex-4.235, (3S,4S)(3S,4S) or (3S,4S)(3R,4R) or (3R,4R)(3S,4S) or (3R,4R)(3R,4R) 4-(4-{6-chloro-2-[(1,3-dimethyl-1H-pyrazol-5-yl)amino]quinazolin-7-yl}-3-fluoropiperidin-1-yl)oxolan-3-ol], for which the “LRRK2 pIC50” value was determined as 8.84.

The experiment is the same for the next values; noted with them: G2019S LRRK2, 134 μM ATP (Km ATP), mean values; read-out: LRRK2 pIC50 (converted).
For the molecule `C[C@H]1CC(c2cc3nc(Nc4cnn(C5CC5)c4Cl)ncc3cc2Cl)CCN1C1COC1` (single isomer, unassigned) [Ex-1.12, (S) or (R) 6-chloro-N-(5-chloro-1-cyclopropyl-1H-pyrazol-4-yl)-7-(2-methyl-1-(oxetan-3-yl)piperidin-4-yl)quinazolin-2-amine], the IC50 was 741 pM.
Regarding `Clc1cc2cnc(Nc3cnn(C4CC4)c3Cl)nc2cc1C1CCN(C2COC2)C1` (single isomer, unassigned) [Ex-4.32, (S) or (R) 6-chloro-N-(5-chloro-1-cyclopropyl-1H-pyrazol-4-yl)-7-[1-(oxetan-3-yl)pyrrolidin-3-yl]quinazolin-2-amine], the IC50 is 16600 pM.
Regarding `CC1(N2CC3(CC(n4cc(Nc5ncc6cc(Cl)c(C7CC78CC8)cc6n5)cn4)C3)C2)COC1` (single isomer, unassigned) [Ex-2.7, (S) or (R) 6-chloro-N-{1-[2-(3-methyloxetan-3-yl)-2-azaspiro[3.3]heptan-6-yl]-1H-pyrazol-4-yl}-7-(spiro[2.2]pentan-1-yl)quinazolin-2-amine], the IC50 is 813 pM.
Consider `CC1(C)CC(N2CCC(c3cc4nc(Nc5cnn(C6CC6)c5Cl)ncc4cc3Cl)CC2)CO1` (single isomer, unassigned) [Ex-4.117, (R) or (S) 6-chloro-N-(5-chloro-1-cyclopropyl-1H-pyrazol-4-yl)-7-(1-(5,5-dimethyltetrahydrofuran-3-yl)piperidin-4-yl)quinazolin-2-amine], for which the IC50 was < 631 pM.

The record behind these values is US12540131B2 (Merck Sharp & Dohme LLC, priority 2019, dated 2026).
